Test results published in PubChem BioAssay AID248 (DTP/NCI, 2004).
Values joined by “and” are separate entries in the source; they are usually repeats but may differ in a detail not shown here. Equal entries are not always repeated. Inconclusive results and toxic doses are left out. Rule as the data show it: active = T/C of 150% or more; inactive = T/C below 125%.

Tested on: L1210 leukemia ip in BDF1 mice, survival T/C
Assay: NCI In Vivo Anticancer Drug Screen. Data for tumor model L1210 Leukemia (intraperitoneal) in B6D2F1 (BDF1) mice
Conditions: endpoint: mean survival time, higher = longer survival
Summary of the method: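 Transplanted-tumor mice were given test agent; controls received vehicle only. Survival readings from the two groups were divided (treated over control).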

[1] = dose: 100.0 mg/kg/injection, schedule: Q01DX009 (ip), vehicle: saline with Tween-80
[2] = dose: 400.0 mg/kg/injection, schedule: Q01DX009 (ip), vehicle: saline with Tween-80
[3] = dose: 100.0 mg/kg/injection, schedule: Q01DX001 (ip), vehicle: saline
[4] = dose: 200.0 mg/kg/injection, schedule: Q01DX001 (ip), vehicle: saline
[5] = dose: 100.0 mg/kg/injection, schedule: Q04DX003 (ip), vehicle: saline with Tween-80
[6] = dose: 200.0 mg/kg/injection, schedule: Q04DX003 (ip), vehicle: saline with Tween-80
[7] = dose: 400.0 mg/kg/injection, schedule: Q04DX003 (ip), vehicle: saline with Tween-80
[8] = dose: 200.0 mg/kg/injection, schedule: Q01DX009 (ip), vehicle: saline with Tween-80
[9] = dose: 25.0 mg/kg/injection, schedule: Q01DX009 (ip), vehicle: Klucel (hydroxypropylcellulose) (HPC)
[10] = dose: 100.0 mg/kg/injection, schedule: Q01DX009 (ip), vehicle: Klucel (hydroxypropylcellulose) (HPC)
[11] = dose: 200.0 mg/kg/injection, schedule: Q01DX009 (ip), vehicle: Klucel (hydroxypropylcellulose) (HPC)
[12] = dose: 50.0 mg/kg/injection, schedule: Q01DX001 (ip), vehicle: carboxymethylcellulose (CMC)
[13] = dose: 100.0 mg/kg/injection, schedule: Q01DX001 (ip), vehicle: carboxymethylcellulose (CMC)
[14] = dose: 200.0 mg/kg/injection, schedule: Q01DX001 (ip), vehicle: carboxymethylcellulose (CMC)
[15] = dose: 100.0 mg/kg/injection, schedule: Q01DX001 (ip), vehicle: other
[16] = dose: 200.0 mg/kg/injection, schedule: Q01DX001 (ip), vehicle: other
[17] = dose: 400.0 mg/kg/injection, schedule: Q01DX001 (ip), vehicle: other

Measured: T/C

Cc1cc(C)c(O)c(C)c1C
inactive: [1] 104 % of control | [2] 95 % of control

C1CSCS1
inactive: dose: 12.5 mg/kg/injection, schedule: Q04DX002 (ip), vehicle: saline with Tween-80 103 % of control | dose: 25.0 mg/kg/injection, schedule: Q04DX002 (ip), vehicle: saline with Tween-80 106 % of control | dose: 50.0 mg/kg/injection, schedule: Q04DX002 (ip), vehicle: saline with Tween-80 106 % of control

NC1(C(=O)O)CSSC1
inactive: dose: 12.5 mg/kg/injection, schedule: Q01DX005 (ip), vehicle: saline 97 % of control | dose: 25.0 mg/kg/injection, schedule: Q01DX005 (ip), vehicle: saline 99 % of control | dose: 50.0 mg/kg/injection, schedule: Q01DX005 (ip), vehicle: saline 103 % of control and 114 % of control | [3] 106 % of control | dose: 100.0 mg/kg/injection, schedule: Q01DX005 (ip), vehicle: saline 110 % of control | [4] 101 % of control

CC(C)NC(=O)Nc1cccc(OC(=O)NC(C)(C)C)c1
inactive: [5] 88 % of control | [6] 91 % of control | [7] 89 % of control

COc1ccc(C(=O)NS(=O)(=O)c2ccc(Cl)cc2)cc1
inactive: [5] 107 % of control | [6] 91 % of control | [7] 114 % of control

CCOP(=S)(NCCOC)OCC
inactive: [1] 97 % of control | [8] 94 % of control | [2] 95 % of control

N#CCC[P+](CCC#N)(CCC#N)CCCC[P+](CCC#N)(CCC#N)CCC#N
inactive: [5] 94 % of control | [6] 91 % of control | [7] 94 % of control

CCOC(=O)CNC(=O)Nc1cccc(F)c1
inactive: [1] 103 % of control | [8] 102 % of control | [2] 96 % of control

CCCC/C=C/CCCC
inactive: dose: 75.0 mg/kg/injection, schedule: Q01DX009 (ip), vehicle: saline 100 % of control | dose: 300.0 mg/kg/injection, schedule: Q01DX009 (ip), vehicle: saline 86 % of control

NC1CCC(CC2CCCCCC2)CC1 (stereo not given)
inactive: dose: 6.25 mg/kg/injection, schedule: Q01DX009 (ip), vehicle: Klucel (hydroxypropylcellulose) (HPC) 107 % of control | dose: 12.5 mg/kg/injection, schedule: Q01DX009 (ip), vehicle: Klucel (hydroxypropylcellulose) (HPC) 100 % of control | [9] 97 % of control and 98 % of control

O=P(O)(c1cc(Cl)cc(Cl)c1)c1cc(Cl)cc(Cl)c1
inactive: dose: 18.8 mg/kg/injection, schedule: Q01DX001 (ip), vehicle: saline 96 % of control | dose: 37.5 mg/kg/injection, schedule: Q01DX001 (ip), vehicle: saline 96 % of control | dose: 75.0 mg/kg/injection, schedule: Q01DX001 (ip), vehicle: saline 96 % of control

C=C1CC(c2ccc(S(=O)(=O)N(CC)CC)cc2)OC1=O (stereo not given)
inactive: dose: 25.0 mg/kg/injection, schedule: Q01DX005 (ip), vehicle: Klucel (hydroxypropylcellulose) (HPC) 89 % of control | [9] 98 % of control | dose: 25.0 mg/kg/injection, schedule: Q04DX002 (ip), vehicle: Klucel (hydroxypropylcellulose) (HPC) 96 % of control | dose: 50.0 mg/kg/injection, schedule: Q01DX005 (ip), vehicle: Klucel (hydroxypropylcellulose) (HPC) 92 % of control | dose: 50.0 mg/kg/injection, schedule: Q01DX009 (ip), vehicle: Klucel (hydroxypropylcellulose) (HPC) 94 % of control | dose: 50.0 mg/kg/injection, schedule: Q04DX002 (ip), vehicle: Klucel (hydroxypropylcellulose) (HPC) 96 % of control | dose: 100.0 mg/kg/injection, schedule: Q01DX005 (ip), vehicle: Klucel (hydroxypropylcellulose) (HPC) 96 % of control | [10] 98 % of control | dose: 100.0 mg/kg/injection, schedule: Q04DX002 (ip), vehicle: Klucel (hydroxypropylcellulose) (HPC) 96 % of control

CC1(C)N=C(N)N=C(N)N1c1cccc(CCCCc2cccc(S(=O)(=O)F)c2)c1
inactive: dose: 6.25 mg/kg/injection, schedule: Q01DX009 (ip), vehicle: saline sonified 100 % of control | dose: 6.25 mg/kg/injection, schedule: Q04DX003 (ip), vehicle: saline sonified 93 % of control | dose: 12.5 mg/kg/injection, schedule: Q01DX009 (ip), vehicle: saline sonified 88 % of control | dose: 12.5 mg/kg/injection, schedule: Q04DX003 (ip), vehicle: saline sonified 98 % of control | dose: 25.0 mg/kg/injection, schedule: Q01DX009 (ip), vehicle: saline sonified 92 % of control | dose: 25.0 mg/kg/injection, schedule: Q04DX003 (ip), vehicle: saline sonified 93 % of control

CC(C)CP(=O)(CC(C)C)C1CCCC1
inactive: dose: 100.0 mg/kg/injection, schedule: Q01DX001 (ip), vehicle: saline with Tween-80 100 % of control | dose: 200.0 mg/kg/injection, schedule: Q01DX001 (ip), vehicle: saline with Tween-80 105 % of control

CC1(C)OC2C3COc4nc5c(N)ncnc5n4C(O3)C2O1 (stereo not given)
inactive: dose: 100.0 mg/kg/injection, schedule: Q01DX001 (ip), vehicle: steriod suspending solution 112 % of control | dose: 200.0 mg/kg/injection, schedule: Q01DX001 (ip), vehicle: steriod suspending solution 101 % of control | dose: 400.0 mg/kg/injection, schedule: Q01DX001 (ip), vehicle: steriod suspending solution 98 % of control

CN(C)c1ccc(C(=S)c2ccc(N(C)C)nc2)cn1
inactive: [10] 102 % of control | dose: 100.0 mg/kg/injection, schedule: Q04DX003 (ip), vehicle: Klucel (hydroxypropylcellulose) (HPC) 98 % of control | [11] 88 % of control | dose: 200.0 mg/kg/injection, schedule: Q04DX003 (ip), vehicle: Klucel (hydroxypropylcellulose) (HPC) 106 % of control | dose: 400.0 mg/kg/injection, schedule: Q01DX009 (ip), vehicle: Klucel (hydroxypropylcellulose) (HPC) 98 % of control | dose: 400.0 mg/kg/injection, schedule: Q04DX003 (ip), vehicle: Klucel (hydroxypropylcellulose) (HPC) 104 % of control

C=C1C(=O)OC2C1CCC(C)=C1C(=O)C=C(C)C12 (stereo not given)
inactive: dose: 100.0 mg/kg/injection, schedule: Q04DX002 (ip), vehicle: saline 94 % of control | dose: 200.0 mg/kg/injection, schedule: Q04DX002 (ip), vehicle: saline 97 % of control

O=C(COCC(=O)N/N=C/c1ccccc1Cl)N/N=C\c1ccccc1Cl
inactive: [10] 93 % of control | [11] 95 % of control

Cc1nn[nH]n1
inactive: [3] 119 % of control | [4] 105 % of control | dose: 400.0 mg/kg/injection, schedule: Q01DX001 (ip), vehicle: saline 105 % of control

Oc1ccccc1-c1nnco1
inactive: [12] 94 % of control | [13] 92 % of control | [14] 94 % of control | dose: 400.0 mg/kg/injection, schedule: Q01DX001 (ip), vehicle: carboxymethylcellulose (CMC) 94 % of control

CO/C=C(\C)C(=O)NC(=O)NC1CCC(CO)C1 (stereo not given)
inactive: [15] 96 % of control | [16] 107 % of control | [17] 98 % of control

CC1=CC(=O)C(C(C)C)C1 (stereo not given)
inactive: [15] 98 % of control | [16] 109 % of control | [17] 95 % of control

CC(=O)OC(c1ccnc2ccccc12)C1CC2CCN1CC2 (stereo not given)
inactive: [12] 97 % of control | [13] 97 % of control | [14] 95 % of control

CCCCSc1ccccn1
inactive: dose: 50.0 mg/kg/injection, schedule: Q04DX003 (ip), vehicle: saline 114 % of control | dose: 100.0 mg/kg/injection, schedule: Q04DX003 (ip), vehicle: saline 98 % of control | dose: 200.0 mg/kg/injection, schedule: Q04DX003 (ip), vehicle: saline 90 % of control

CC1CC=C(C(=O)O)CC1 (stereo not given)
inactive: dose: 50.0 mg/kg/injection, schedule: Q01DX001 (ip), vehicle: other 90 % of control | [15] 95 % of control | [16] 93 % of control | [17] 95 % of control

CCCCCCCCCCCCNC(=O)c1ccc[n+](Cc2ccccc2)c1
inactive: dose: 5.0 mg/kg/injection, schedule: Q01DX009 (ip), vehicle: saline 102 % of control | dose: 5.0 mg/kg/injection, schedule: Q04DX003 (ip), vehicle: saline sonified 101 % of control | dose: 10.0 mg/kg/injection, schedule: Q01DX009 (ip), vehicle: saline 98 % of control | dose: 10.0 mg/kg/injection, schedule: Q04DX003 (ip), vehicle: saline sonified 106 % of control

CC(C)[O][In]([O]C(C)C)[O]C(C)C
inactive: dose: 50.0 mg/kg/injection, schedule: Q04DX003 (ip), vehicle: saline with Tween-80 96 % of control | [5] 99 % of control | [6] 91 % of control | [7] 96 % of control
